In the NIST ThermoML archive (doi:10.1016/j.jct.2013.01.032):
± gives the expanded uncertainty stated by the source.

Details: 101.33 kPa, Liquid; for speed of sound: Sing-around technique in a fixed-path interferometer; for mass density: Vibrating tube method

Compound `CCCCn1cc[n+](C)c1.O=S(=O)([O-])C(F)(F)F` [1-butyl-3-methylimidazolium trifluoromethanesulfonate] has a speed of sound (293.15 K) of 1402.9 ± 1.3 m/s, a mass density (293.15 K) of 1303.7 ± 0.6 kg/m3 and a speed of sound (308.15 K) of 1369.1 ± 1.3 m/s. It also gave a mass density (308.15 K) of 1291.7 ± 0.6 kg/m3, a speed of sound (323.15 K) of 1336.5 ± 1.3 m/s and a mass density (323.15 K) of 1279.9 ± 0.6 kg/m3.

In the case of `CCCCO` [butan-1-ol], the speed of sound (293.15 K) is reported as 1256.2 ± 0.8 m/s, the mass density (293.15 K) is reported as 809.54 ± 0.14 kg/m3 and the speed of sound (308.15 K) is reported as 1205.9 ± 0.8 m/s. It also gave a mass density (308.15 K) of 798.01 ± 0.15 kg/m3, a speed of sound (323.15 K) of 1155.7 ± 0.8 m/s and a mass density (323.15 K) of 786.15 ± 0.15 kg/m3.

`CCC(C)O` (stereo not given) [butan-2-ol] showed a speed of sound (293.15 K) of 1230 ± 1 m/s, a mass density (293.15 K) of 806.56 ± 0.18 kg/m3 and a speed of sound (308.15 K) of 1175.8 ± 0.9 m/s. The mass density (308.15 K) was 794 ± 0.19 kg/m3, the speed of sound (323.15 K) was 1120.3 ± 0.9 m/s and the mass density (323.15 K) was 780.5 ± 0.19 kg/m3.

Work on `CCCCCO` [pentan-1-ol] yielded a speed of sound (293.15 K) of 1292.7 ± 1.3 m/s, a mass density (293.15 K) of 814.53 ± 0.31 kg/m3 and a speed of sound (308.15 K) of 1242.4 ± 1.3 m/s. For the same compound, the mass density (308.15 K) was 803.52 ± 0.31 kg/m3, the speed of sound (323.15 K) was 1192.7 ± 1.3 m/s and the mass density (323.15 K) was 792.15 ± 0.31 kg/m3.

For `CCCO` [propan-1-ol], the speed of sound (293.15 K) was 1223.9 ± 0.8 m/s, the mass density (293.15 K) was 803.92 ± 0.14 kg/m3 and the speed of sound (308.15 K) was 1172.6 ± 0.8 m/s. The mass density (308.15 K) was 791.84 ± 0.15 kg/m3, the speed of sound (323.15 K) was 1122 ± 0.8 m/s and the mass density (323.15 K) was 779.33 ± 0.16 kg/m3.

Compound `CC(C)O` [propan-2-ol] has a speed of sound (293.15 K) of 1156.7 ± 0.8 m/s, a mass density (293.15 K) of 785.1 ± 0.15 kg/m3 and a mass density (308.15 K) of 772.31 ± 0.16 kg/m3. It also gave a speed of sound (323.15 K) of 1050.8 ± 0.7 m/s and a mass density (323.15 K) of 758.7 ± 0.17 kg/m3.
